Assay results published in patent publication US11433070B2, “Synergistic anti-inflammatory compositions” (The Procter & Gamble Company, priority 2019, dated 2022).

Legend:
[1] = system: PGE2 release from TERT keratinocytes (tKC); assay: PGE2 assay: inhibition of PGE2 release from UVB-stressed keratinocytes, normalized to ATP; assay type: cell-based, human; settings: for AVG PGE2 % Control / AVG PGE2 % Inhibition: piroctone olamine 1E-7% (w/v), alone or combined (observed), 15 mJ/cm2 UVB, 18-24 h; for Inhibiting PGE2 release from keratinocytes, individually (in words): each material alone
Text: Inhibiting the Cell's Inflammation Response to a Stressor-Prostaglandin E2 (“PGE2”) Assay. […] PGE2 is a hormone-like substance that is known to participate in modulation of inflammation. Cellular inflammation is associated with a variety of hair, skin and scalp conditions, and thus inhibiting PGE2 activation vis-à-vis cellular inflammation may help treat these types of hair, skin and scalp conditions. TERT keratinocytes (tKC) are human keratinocytes which have been transfected with the human telomerase reverse transcriptase gene to immortalize the cells. They are obtained from Jerry Shay, University of Texas, Southwestern and plated at 40,000 cells/well into 24-well plates in 1 ml/well volume. EpiLife Medium (Life Technologies cat #[…]500) supplemented with keratinocyte growth supplement (Life technologies cat #S-001-5) is used as the assay media. The cells are grown to confluence/near confluence, (typically 24 hours after plating 40,000 cells/well in 24 well plate) and then subjected to 15 mJ/cm^2 UVB-stress (typically 14-16 exposure time in BioSun). […] The supernatant is removed from each well, and the cells are rinsed with 2 ml/well medium (without supplements). A Cell Titer-Glo assay (Promega cat #G7571; Madison Wis.) is used to measure ATP activity, which is conducted on the cells for normalization. The supernatant is tested in a PGE2 assay (Prostaglandin E2 Assay kit from Cisbio Bioassays cat #62P2APEB) according to the manufacturer's instructions. The PGE2 results are normalized to ATP activity. The PGE2 quantitation (pg/mL) from the supernatant is divided by the normalization factor (treatment ATP/control ATP). […] Synergy factor is simply the ratio of observed combination/expected combination.

[2] = cited from earlier work
TERT keratinocytes (tKC) = assay: Cell Titer-Glo assay measuring ATP activity, used for normalization; assay type: cell-based, human; settings: example calculation; vehicle control 704567
Description: TERT keratinocytes (tKC) are human keratinocytes which have been transfected with the human telomerase reverse transcriptase gene to immortalize the cells. They are obtained from Jerry Shay, University of Texas, Southwestern and plated at 40,000 cells/well into 24-well plates in 1 ml/well volume. EpiLife Medium (Life Technologies cat #[…]500) supplemented with keratinocyte growth supplement (Life technologies cat #S-001-5) is used as the assay media. The cells are grown to confluence/near confluence, (typically 24 hours after plating 40,000 cells/well in 24 well plate) and then subjected to 15 mJ/cm^2 UVB-stress (typically 14-16 exposure time in BioSun). […] The supernatant is removed from each well, and the cells are rinsed with 2 ml/well medium (without supplements). A Cell Titer-Glo assay (Promega cat #G7571; Madison Wis.) is used to measure ATP activity, which is conducted on the cells for normalization. The supernatant is tested in a PGE2 assay (Prostaglandin E2 Assay kit from Cisbio Bioassays cat #62P2APEB) according to the manufacturer's instructions. The PGE2 results are normalized to ATP activity. The PGE2 quantitation (pg/mL) from the supernatant is divided by the normalization factor (treatment ATP/control ATP).

[3] = 1:1 azoxystrobin:PO block, azoxystrobin 1E-7%
[4] = 1:10 azoxystrobin:PO block, azoxystrobin 1E-8%
[5] = 1:50 azoxystrobin:PO block, azoxystrobin 2E-9%
[6] = 4:1 azoxystrobin:PO block, azoxystrobin 4E-7%

SMILES | AVG PGE2 % Control [1, 3] [%] | AVG PGE2 % Inhibition [1, 3] [%] | AVG PGE2 % Control [1, 4] [%] | AVG PGE2 % Inhibition [1, 4] [%] | AVG PGE2 % Control [1, 5] [%] | AVG PGE2 % Inhibition [1, 5] [%] | AVG PGE2 % Control [1, 6] [%] | AVG PGE2 % Inhibition [1, 6] [%] | Inhibiting PGE2 release from keratinocytes, individually (in words) [1] | % inhibition (PGE2) ([1]; example calculation vs vehicle control) [%] | Normalized PGE2 value ([1]; example calculation, PGE2 quantitation divided by normalization factor, control 2458) | PGE2 quantitation ([1]; example calculation, supernatant, before ATP normalization, vehicle control 2458 pg/mL) [pg/mL] | Solubility in water (in words) [2] | Luminescence in ATP assay (TERT keratinocytes (tKC))
CO/C=C(/C(=O)OC)c1ccccc1Oc1cc(Oc2ccccc2C#N)ncn1 [azoxystrobin] | 92 | 8 | 99 | 1 | 99 | 1 | 87 | 13 | relatively weak | 8 | 2261 | 2347 | low solubility in water | 678903
Cc1cc(CC(C)CC(C)(C)C)n(O)c(=O)c1.NCCO (centres unmarked) [piroctone olamine, 1-Hydroxy-4-methyl-6-(2,4,4-trimethylpentyl)-2-pyridone monoethanolamine salt] | 96.5 | 3.5 | 96.2 | 3.8 | 96.2 | 3.8 | 96.2 | 3.8 | relatively weak | – | – | – | – | –
